We go through eleven molecules from ChEMBL document CHEMBL1201862, “PubChem BioAssay data set” (2004).

Molecules are shown by their SMILES.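 In this assay, cells in 96-well plates receive the compound at five concentrations for 48 hours. Endpoints are linearly interpolated between the surrounding concentrations. GI50: concentration for 50% inhibition of growth.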 Calls of active or inactive are those of the source. No stated cut-off is given here; in the data, active = GI50 up to about 1.1 µM and inactive = higher.

Test systems include OVCAR-3; NCI-H23; SW-620; COLO 205; SNB-75; HCT-116; UO-31; KM12; OVCAR-4; BT-549; OVCAR-5; UACC-257; HL-60; MCF7; DU-145; HCC 2998; HOP-92; MDA-MB-231; NCI/ADR-RES; RXF 393.
Holding throughout (test): NCI-60 cell line screen, 48 h

With `Cc1cccc(C(C)(C)C)c1NC(=O)/C(Cc1nc2ccc([N+](=O)[O-])cc2nc1O)=N\NC(=O)C[N+](C)(C)C`, the GI50 in the test with OVCAR-3 was 52 µM (inactive); in the test with NCI-H23, > 100 µM (inactive); in the test with SW-620 it was 65.8 µM (inactive); with COLO 205, 71.8 µM (inactive); in the test on SNB-75 it was > 100 µM (inactive); in the test on HCT-116 it was > 100 µM (inactive). Moreover, the GI50 was 37.8 µM (inactive) in the test with UO-31; 47.1 µM (inactive) in the test with KM12; > 100 µM (inactive) in the test on OVCAR-4; 38.5 µM (inactive) in the test with BT-549; > 100 µM (inactive) in the test on OVCAR-5; > 100 µM (inactive) with UACC-257. Moreover, the GI50 in the test on HL-60 was > 100 µM (inactive); in the test with MCF7 it was 74.6 µM (inactive); in the test on DU-145, > 100 µM (inactive); with HCC 2998, > 100 µM (inactive); with HOP-92 it was 47.2 µM (inactive); in the test on MDA-MB-231, > 100 µM (inactive). Further, the GI50 in the test on NCI/ADR-RES is 60.5 µM (inactive).

For the molecule `Cc1cc(N(CCC#N)CCC#N)ccc1C(/N=N/c1ccccc1)=N\NC(=O)c1cc(Cl)ccc1O`, the GI50 in the test on RXF 393 was 23.3 µM (inactive); with OVCAR-3, 18 µM (inactive); in the test on NCI-H23, 13.1 µM (inactive); in the test with COLO 205 it was 19.7 µM (inactive); in the test on SNB-75, 77.6 µM (inactive); in the test on HCT-116 it was 15.7 µM (inactive). Moreover, the GI50 in the test with UO-31 is 14.8 µM (inactive); with KM12 it was 26.1 µM (inactive); in the test with OVCAR-4, 20.7 µM (inactive); in the test with BT-549, 18.2 µM (inactive); in the test on OVCAR-5 it was > 10 µM (inactive); in the test with UACC-257, 18.6 µM (inactive). For the same molecule, the GI50 was 37.9 µM (inactive) with HL-60; 11.7 µM (inactive) in the test with MCF7; 27.5 µM (inactive) in the test with DU-145; 15.8 µM (inactive) in the test with HCC 2998; 27.1 µM (inactive) with MDA-MB-231; 20.1 µM (inactive) in the test on NCI/ADR-RES.

Turning to `COC(=O)c1c(O)ccc2c1c1c(n2Cc2ccccc2)C(=O)c2ccccc2C1`, the GI50 with RXF 393 is 21.3 µM (inactive); in the test on OVCAR-3, 43 µM (inactive); in the test on NCI-H23 it was 41.2 µM (inactive); in the test with SW-620 it was 74 µM (inactive); in the test on COLO 205, 15.4 µM (inactive); with SNB-75, 20.6 µM (inactive). The GI50 in the test on HCT-116 is 54.6 µM (inactive); in the test with UO-31, 49.4 µM (inactive); in the test on KM12, 35.1 µM (inactive); with OVCAR-4, 18.6 µM (inactive); with BT-549, 58.6 µM (inactive); with OVCAR-5 it was 0.0282 µM (active). For the same molecule, the GI50 in the test on UACC-257 was 50.6 µM (inactive); in the test with HL-60 it was 12.6 µM (inactive); in the test with MCF7, 25.4 µM (inactive); in the test on DU-145, 99.3 µM (inactive); in the test on MDA-MB-231, 39.7 µM (inactive); in the test on NCI/ADR-RES, 25.8 µM (inactive).

In the case of `CC(=O)NS(=O)(=O)c1ccc(NC(=O)c2c3ccccc3nc3ccccc23)cc1`, the GI50 in the test on OVCAR-3, with NCI-H23, in the test on SW-620, with COLO 205, in the test on SNB-75 and with HCT-116 was > 100 µM (inactive) each time. Moreover, the GI50 is 30.4 µM (inactive) with UO-31; > 100 µM (inactive) in the test on KM12; > 100 µM (inactive) with OVCAR-4; > 100 µM (inactive) in the test on BT-549; > 100 µM (inactive) in the test on OVCAR-5; > 100 µM (inactive) in the test with UACC-257. Besides, the GI50 with HL-60 was 1.48 µM (inactive); in the test on MCF7, > 100 µM (inactive); in the test with DU-145 it was > 100 µM (inactive); in the test on HCC 2998 it was > 100 µM (inactive); with HOP-92, > 100 µM (inactive); in the test on MDA-MB-231, > 100 µM (inactive). Besides, in the test with NCI/ADR-RES, the GI50 was > 100 µM (inactive).

Regarding `CCOC(=O)C1=C(C)N(C)C23OC4(C(=O)OC)CC2c2ccccc2C1N3C4=O` (centres undefined), the GI50 is > 100 µM (inactive) with OVCAR-3; > 100 µM (inactive) with NCI-H23; 41.9 µM (inactive) with SW-620; > 100 µM (inactive) in the test on COLO 205; > 100 µM (inactive) in the test with SNB-75; 49.8 µM (inactive) in the test on HCT-116. Also, the GI50 with UO-31 was 25.1 µM (inactive); in the test on KM12, 84.5 µM (inactive); in the test on OVCAR-4 it was > 100 µM (inactive); in the test with BT-549 it was > 100 µM (inactive); in the test with OVCAR-5, > 100 µM (inactive); in the test with UACC-257 it was > 100 µM (inactive). In addition, the GI50 with HL-60 was 24.6 µM (inactive); with MCF7 it was 28.1 µM (inactive); in the test with DU-145 it was > 100 µM (inactive); in the test with HCC 2998, 12.4 µM (inactive); with HOP-92, > 100 µM (inactive); with MDA-MB-231 it was > 100 µM (inactive). In addition, in the test with NCI/ADR-RES, the GI50 is 86.9 µM (inactive).

As for `O=C(Nc1ccccc1)n1[nH]c(=O)n(-c2ccccc2)c1=O`, the GI50 in the test on NCI-H23, with SW-620, in the test on COLO 205, with SNB-75, in the test with HCT-116 and with UO-31 was > 100 µM (inactive) in each case. In addition, the GI50 in the test with KM12, in the test on OVCAR-4, with BT-549, with UACC-257, with HL-60 and in the test with MCF7 was > 100 µM (inactive) throughout. Besides, the GI50 in the test with DU-145, in the test with HCC 2998, in the test on HOP-92, in the test with MDA-MB-231 and in the test with NCI/ADR-RES was > 100 µM (inactive) throughout.

As to `CN(C)/N=N/c1nc2c(c(=O)n(C)c(=O)n2C)n1C`, the GI50 in the test on RXF 393, with OVCAR-3, with SW-620, in the test with COLO 205, in the test with SNB-75 and in the test on HCT-116 was > 100 µM (inactive) throughout. Further, the GI50 in the test on UO-31, in the test with KM12, in the test on OVCAR-4, in the test with BT-549, in the test with OVCAR-5 and in the test on UACC-257 was > 100 µM (inactive) in each case. The GI50 in the test with MCF7 is 7.5 µM (inactive); in the test on DU-145, > 100 µM (inactive); with HCC 2998 it was > 100 µM (inactive); in the test with MDA-MB-231, > 100 µM (inactive); in the test on NCI/ADR-RES, > 100 µM (inactive).

On to `Cc1cc2nnn(C3CCCCO3)c2cc1C` (centres undefined), for which the GI50 in the test with RXF 393 was > 100 µM (inactive); in the test on OVCAR-3, > 100 µM (inactive); in the test with NCI-H23, > 100 µM (inactive); in the test with COLO 205, > 100 µM (inactive); in the test with SNB-75, 88.1 µM (inactive); with HCT-116 it was > 100 µM (inactive). Further, the GI50 with UO-31 is 98.2 µM (inactive); in the test with KM12, > 100 µM (inactive); in the test on OVCAR-4, > 100 µM (inactive); in the test on BT-549, > 100 µM (inactive); in the test with OVCAR-5, > 100 µM (inactive); with UACC-257 it was > 100 µM (inactive). The GI50 in the test on MCF7, in the test on DU-145, in the test with HCC 2998, in the test with MDA-MB-231 and in the test with NCI/ADR-RES was > 100 µM (inactive) in each case.

`N#Cc1c(N)nc2c(c1-c1ccc(Br)cc1)CSc1ccccc1-2`: the GI50 with RXF 393 was 20.1 µM (inactive); in the test on OVCAR-3, 30.4 µM (inactive); in the test on NCI-H23 it was 29.6 µM (inactive); with SW-620, 83.4 µM (inactive); with COLO 205 it was 13.3 µM (inactive); in the test with SNB-75, 31.4 µM (inactive). The GI50 was 18.5 µM (inactive) in the test with HCT-116; 33.8 µM (inactive) in the test on UO-31; 56 µM (inactive) in the test with KM12; 24.6 µM (inactive) in the test with OVCAR-4; > 100 µM (inactive) in the test with BT-549; 13.9 µM (inactive) in the test with UACC-257. For the same molecule, the GI50 in the test on HL-60 is 33.7 µM (inactive); in the test with MCF7, 19.1 µM (inactive); in the test with DU-145, 96.6 µM (inactive); with HOP-92 it was 9.02 µM (inactive); with MDA-MB-231, 13.3 µM (inactive); in the test on NCI/ADR-RES, 22 µM (inactive).

As to `CCOC(=O)NC(=S)NC(C)c1ccccc1` (centres undefined), the GI50 with RXF 393, in the test with OVCAR-3, with NCI-H23, in the test with SW-620, in the test with COLO 205 and in the test with SNB-75 was > 100 µM (inactive) each time. Besides, the GI50 in the test on HCT-116 is > 100 µM (inactive); in the test on UO-31, 70.6 µM (inactive); in the test with KM12, > 100 µM (inactive); with OVCAR-4, > 100 µM (inactive); in the test with BT-549 it was > 100 µM (inactive); in the test on OVCAR-5 it was > 100 µM (inactive). Also, the GI50 in the test on UACC-257, with MCF7, in the test on DU-145, in the test on HCC 2998, with MDA-MB-231 and in the test with NCI/ADR-RES was > 100 µM (inactive) each time.

For the molecule `COc1ccc2c(c1)-c1nc(=O)n(CCCN(C)C)c3ccc([N+](=O)[O-])c(c13)N2`, the GI50 with OVCAR-3 was 2.13 µM (inactive); in the test with NCI-H23 it was 1.1 µM (active); in the test with SW-620 it was 0.282 µM (active); in the test with COLO 205, 0.752 µM (active); in the test with SNB-75, 1.28 µM (inactive); with HCT-116, 0.293 µM (active). Moreover, the GI50 in the test on UO-31 was 0.682 µM (active); in the test with KM12, 0.873 µM (active); with OVCAR-4, 1.77 µM (inactive); in the test on BT-549, 3.85 µM (inactive); in the test on OVCAR-5 it was 1.15 µM (inactive); with UACC-257, 1.04 µM (active). The GI50 with HL-60 is 1.86 µM (inactive); in the test on MCF7, 0.448 µM (active); with DU-145, 0.776 µM (active); with HCC 2998, 1.06 µM (active); in the test on HOP-92 it was 1.57 µM (inactive); in the test with MDA-MB-231 it was 0.561 µM (active). The GI50 with NCI/ADR-RES is 1.88 µM (inactive).
